Assays:
[1] = test system: GLD1 (glucose dehydrogenase (FAD-dependent), BBI Solutions); assay: Maltose/glucose response current ratio, unimmobilized GLD1 with mPMS (chronoamperometry); assay type: biochemical, Aspergillus; settings: for Maltose/Glucose (%) / Relative value (%) of Maltose/Glucose: 5 mM additive; for Maltose/Glucose (%): mPMS; for Relative value (%) of Maltose/Glucose: no modifier = 100%
Description: (§1) 10 μL of 12 mg/ml MpGDH purified preparation, 10 μL of 15 mM each glucose analog, and 10 μL of 20 mM potassium phosphate buffer were mixed and allowed to stand for 2 hours or longer. Onto screen-printed electrodes (manufactured by DropSens, Product number: DRP-C110), 80 μL of PBS, 5 μL of each MpGDH solution, and 10 μL of 2 mg/ml mPMS solution were applied and mixed. Chronoamperometric measurement was carried out at an applied voltage of +100 mV (Ag/Ag+). Once the current value had become sufficiently constant (about 100 seconds after the start of measurement), a maltose solution was added to a final concentration of 5 mM and mixed by pipetting up and down. Measurement was stopped once the current value had become sufficiently constant. The difference in the response current before and after the addition of maltose was regarded as the response current value of maltose. In contrast, when an equivalent amount of pure water was added instead of the maltose solution, increase in the response current was not observed. The used printed electrode was thoroughly washed with ultrapure water and dried, and then chronoamperometric measurement was carried out in the same manner as above. A glucose solution was added instead of the maltose solution and the response current value of glucose was measured. The value calculated by dividing the response current value of maltose by the response current value of glucose was expressed as maltose/glucose (%).
In the same manner, GLD1 was used to examine the effect of the substrate specificity modifier.

Wild type MpGDH [2] = assay: Maltose/glucose response current ratio, IPPD/MpGDH-immobilized screen-printed electrode (chronoamperometry); assay type: biochemical, Mucor prainii; settings: for Relative value (%) of Maltose/Glucose / Maltose/Glucose (%): 5 mM additive, immobilized wild type MpGDH; for Relative value (%) of Maltose/Glucose: no modifier = 100%; for Maltose/Glucose (%): 1 mM maltose, 1 mM glucose, +250 mV; for Modification of substrate specificity: immobilized MpGDH
Description: (§2) The ratio (Mal/Glu) of the reactivity of the glucose dehydrogenase to maltose (Mal) relative to the reactivity thereof to glucose (Glu) can be determined by the following procedures. Onto a printed carbon electrode, N-isopropyl-N′-phenyl-p-phenylenediamine (IPPD) is immobilized by adsorption and a glucose dehydrogenase is immobilized by cross-linking using glutaraldehyde, wherein the glucose dehydrogenase is, for example, a glucose dehydrogenase from a microorganism of the genus Mucor or a glucose dehydrogenase from a microorganism of the genus Aspergillus. Chronoamperometry is performed by using a three-electrode system composed of a working electrode, a counter electrode, and a reference electrode and applying a potential of +250 mV (Ag/AgCl). Once the current value has become sufficiently constant, maltose is added to a final concentration of 1 mM in phosphate-buffered saline (PBS) (for example, maltose is added 100 seconds after the start of measurement). Next, once the current value has become sufficiently constant again after the addition of maltose, glucose is added to a final concentration of 1 mM in phosphate-buffered saline (PBS) (for example, glucose is added 100 seconds after the addition of maltose). The substrate specificity of glucose dehydrogenase can be evaluated by measuring the reactivity thereof to maltose when the reactivity thereof to glucose is considered as 100%. In the present specification, the ratio of the reactivity to maltose (Mal) relative to the reactivity to glucose (Glu) may be denoted as Mal/Glu. When the reactivity is evaluated based on the response current(s), the ratio of the reactivity may be expressed as the ratio of the response current(s).
(§3) 10 μL of 12 mg/ml MpGDH purified preparation, 10 μL of 15 mM each glucose analog, and 10 μL of 20 mM potassium phosphate buffer were mixed and allowed to stand for 2 hours or longer. N-isopropyl-N′-phenyl-p-phenylenediamine (IPPD) was immobilized by adsorption onto screen-printed electrodes (manufactured by DropSens, Product number: DRP-C110) and 12 μg of each MpGDH was applied to the electrodes and allowed to dry at room temperature. Lastly, the electrodes were placed in 25% glutaraldehyde vapor and the resulting electrodes were washed with pure water to obtain IPPD.MpGDH-immobilized electrodes. Next, the electrode was connected to an ALS electrochemical analyzer 814D via a dedicated connector (DRP-CAC). Then, the IPPD.GDH-immobilized electrode, an Ag/AgCl reference electrode, and a platinum counter electrode were immersed in PBS and chronoamperometric measurement was carried out. The applied voltage was set to +250 mV (Ag/AgCl). Once the current value had become sufficiently constant (about 100 seconds after the start of measurement), maltose was added to a final concentration of 1 mM in PBS. Next, subsequently to the addition of the maltose solution, once the current value had become sufficiently constant again (about 100 seconds after the addition of maltose), a glucose solution was added to a final concentration of 1 mM. The difference in the response current before and after the addition of maltose was recorded as the response current value of maltose, and the difference in the response current before and after the addition of glucose was recorded as the response current value of glucose. The value calculated by dividing the response current value of maltose by the response current value of glucose was expressed as maltose/glucose (%). […] Furthermore, when the maltose/glucose of MpGDH in the absence of a substrate specificity modifier is considered as 100%, the value in the presence of D-glucal became 69%, and the substrate specificity was modified.

MrdGDH [3] = assay: Maltose/glucose response current ratio, IPPD/MrdGDH-immobilized screen-printed electrode (chronoamperometry); assay type: biochemical, Mucor RD056860; settings: for Maltose/Glucose (%) / Relative value (%) of Maltose/Glucose: 5 mM additive; for Maltose/Glucose (%): 1 mM maltose, 1 mM glucose; for Relative value (%) of Maltose/Glucose: no modifier = 100%
Description: as §2, §3
(§4) In the same manner, MrdGDH was used to examine the effect of the substrate specificity modifier.

[4] = test system: GLD1 (glucose dehydrogenase (FAD-dependent), BBI Solutions); assay: Maltose/glucose response current ratio, IPPD/GLD1-immobilized screen-printed electrode (chronoamperometry); assay type: biochemical, Aspergillus; settings: for Maltose/Glucose (%) / Relative value (%) of Maltose/Glucose: 5 mM additive; for Maltose/Glucose (%): 1 mM maltose, 1 mM glucose; for Relative value (%) of Maltose/Glucose: no modifier = 100%
Description: as §2, §3
In the same manner, glucose dehydrogenase (FAD-dependent) (from BBI Solutions, Product Code: GLD1, hereinafter denoted as GLD1) was used to examine the effect of the substrate specificity modifier.

MpGDH = assay: Maltose/glucose response current ratio, unimmobilized MpGDH with mPMS (chronoamperometry); assay type: biochemical, Mucor prainii; settings: for maltose/glucose relative to MpGDH considered as 100%: unimmobilized MpGDH, mPMS, 5 mM maltose, +100 mV
Description: as §1

MrdGDH [5] = assay: Maltose/glucose response current ratio, unimmobilized MrdGDH with mPMS (chronoamperometry); assay type: biochemical, Mucor RD056860; settings: for Maltose/Glucose (%) / Relative value (%) of Maltose/Glucose: 5 mM additive; for Maltose/Glucose (%): mPMS; for Relative value (%) of Maltose/Glucose: no modifier = 100%
Description: as §1, §4

Wild type MpGDH [6] = assay: Maltose/glucose response current ratio, MWCNT/DPPD/MpGDH-immobilized carbon cloth electrode (chronoamperometry); assay type: biochemical, Mucor prainii; settings: for Maltose/Glucose Relative value (%): 50 mM additive, wild type MpGDH on carbon cloth electrode, no modifier = 100%; for Modification of substrate specificity of GDH: carbon cloth electrode, MpGDH
Description: The cloth was thoroughly dried and then washed with ultrapure water. Subsequently, 40 mg/ml wild type MpGDH and 20 μl of 100 mM various glucose analogs dissolved in ultrapure water were mixed in equal proportions, and 20 μl of the resulting solution was applied to the […] immobilized electrode. After being allowed to dry at room temperature, the electrode was placed in 25% glutaraldehyde vapor for 20 minutes to immobilize MpGDH by cross-linking. Then, the electrode was subjected to washing with ultrapure water in the same manner as above to obtain an […]-immobilized electrode. Next, this electrode was connected to an ALS electrochemical analyzer […]. Then, the […]-immobilized electrode, an Ag/AgCl reference electrode, and a platinum counter electrode were immersed in PBS, and chronoamperometric measurement was carried out. The applied voltage was set to +250 mV (Ag/AgCl). […] The difference in the response current before and after the addition of maltose was recorded as the response current value of maltose, and the difference in the response current before and after the addition of glucose was recorded as the response current value of glucose. The value calculated by dividing the response current value of maltose by the response current value of glucose was expressed as maltose/glucose (%). […] An […]-immobilized electrode was made in the same manner as Example 4 except that the application step was altered. That is, 20 μl of 40 mg/ml wild type MpGDH was mixed with 10 μl each of 100 mM glycerol and 100 mM L-iditol dissolved in ultrapure water, and 20 μl of the resulting solution was applied to the […] immobilized electrode for the application step. Then, chronoamperometric measurement was carried out according to the method described in Example 4, and the maltose/glucose (%) was calculated.

Row | SMILES | Modification of substrate specificity [1] | Maltose/Glucose (%) [1] | Relative value (%) of Maltose/Glucose [1] | Relative value (%) of Maltose/Glucose (Wild type MpGDH [2]) | Modification of substrate specificity (MrdGDH [3]) | Maltose/Glucose (%) (MrdGDH [3]) | Relative value (%) of Maltose/Glucose (MrdGDH [3]) | Modification of substrate specificity [4] | Maltose/Glucose (%) [4] | Relative value (%) of Maltose/Glucose [4] | Maltose/Glucose (%) (Wild type MpGDH [2]) | Modification of substrate specificity (Wild type MpGDH [2]) | maltose/glucose relative to MpGDH considered as 100% (MpGDH) | Modification of substrate specificity (MrdGDH [5]) | Maltose/Glucose (%) (MrdGDH [5]) | Relative value (%) of Maltose/Glucose (MrdGDH [5]) | Maltose/Glucose Relative value (%) (Wild type MpGDH [6]) | Modification of substrate specificity of GDH (Wild type MpGDH [6]) | Acts as substrate specificity modifier (MpGDH; enzyme not immobilized)
1 | OC[C@H]1OC=C[C@@H](O)[C@@H]1O [D-glucal] | modified the substrate specificity | 0.25% | 76% | 69% | modified the substrate specificity | 18.1% | 78% | modified the substrate specificity | 0.09% | 30% | – | – | – | – | – | – | – | – | –
2 | OC[C@@H](O)[C@H](O)[C@@H](O)[C@H](O)CO [D-iditol] | – | – | – | 22% | modified the substrate specificity | 19.3% | 83% | modified the substrate specificity | 0.01% | 4% | 0.1% | modified the substrate specificity | 84% | modified the substrate specificity | 21.6% | 70% | – | – | –
3 | OC[C@@H](O)[C@@H](O)[C@H](O)[C@H](O)CO [D-mannitol] | – | – | – | – | – | – | – | – | – | – | – | – | – | – | – | – | 3% | modified the substrate specificity | –
4 | OCC(O)CO [Glycerol, glycerol] | – | – | – | – | – | – | – | – | – | – | – | – | – | – | – | – | 29% | modified the substrate specificity | –
5 | O=C[C@@H](O)[C@@H](O)[C@H](O)[C@@H](O)CO [L-gulose] | modified the substrate specificity | 0.23% | 70% | 74% | – | – | – | modified the substrate specificity | 0% | 0% | 0.34% | modified the substrate specificity | 56% | modified the substrate specificity | 28% | 90% | 62% | modified the substrate specificity | –
6 | OC[C@H](O)[C@@H](O)[C@H](O)[C@@H](O)CO [L-iditol] | modified the substrate specificity | 0.25% | 76% | – | – | – | – | modified the substrate specificity | 0% | 0% | – | – | 68% | – | – | – | 58% | modified the substrate specificity | act as a substrate specificity modifier
7 | OC[C@@H](O)[C@@H](O)[C@@H](O)CO [Ribitol, ribitol] | modified the substrate specificity | 0.29% | 88% | 17% | – | – | – | – | – | – | 0.08% | modified the substrate specificity | 58% | modified the substrate specificity | 22% | 71% | – | – | –
8 | OC[C@@H](O)[C@@H](O)[C@H](O)[C@@H](O)CO [Sorbitol, sorbitol] | – | – | – | 43% | modified the substrate specificity | 17% | 73% | – | – | – | 0.2% | modified the substrate specificity | 67% | modified the substrate specificity | 23% | 74% | – | – | –
9 | OC[C@H]1O[C@H](O[C@H]2O[C@H](CO)[C@@H](O)[C@H](O)[C@H]2O)[C@H](O)[C@@H](O)[C@@H]1O [Trehalose, trehalose] | modified the substrate specificity | 0.28% | 85% | – | modified the substrate specificity | 14.4% | 62% | modified the substrate specificity | 0.08% | 35% | – | – | 72% | modified the substrate specificity | 22% | 71% | – | – | –
10 | OC[C@@H](O)[C@H](O)[C@@H](O)CO [Xylitol, xylitol] | – | – | – | – | – | – | – | – | – | – | – | – | – | – | – | – | 21% | modified the substrate specificity | –
